Test results from the CheMixHub viscosity set.
Several values for one entry are separate records, joined by “and”; a condition that tells them apart may be missing. Identical values can stand only once.

Key:
[1] = xn = mol fraction of the nth substance listed

C=C(C)C(=O)OC
viscosity
Conditions | 298.15 K | 303.15 K | 308.15 K | 313.15 K
101 kPa | 0.5625 mPa·s | 0.5142 mPa·s and 0.524 mPa·s | 0.4932 mPa·s | 0.4684 mPa·s
101.3 kPa | 0.584 mPa·s | – | 0.492 mPa·s | –

CC1(c2ccccc2)OC1C#N (stereo not drawn)
101 kPa
Conditions | viscosity [mPa·s]
293.15 K | 11.77
298.15 K | 9.155
303.15 K | 7.386
313.15 K | 5.17
323.15 K | 3.522

CCCC[P+](C)(CCCC)CCCC.COS(=O)(=O)[O-]
viscosity
Conditions | 293.15 K | 298.15 K | 303.15 K | 308.15 K | 313.15 K | 318.15 K | 323.15 K
100 kPa | 729.1 mPa·s and 729.1 mPa·s | 521.3 mPa·s and 521.3 mPa·s | 381.4 mPa·s and 381.4 mPa·s | 286.1 mPa·s and 286.1 mPa·s | 217 mPa·s and 217 mPa·s | 169.1 mPa·s and 169.1 mPa·s | 133.4 mPa·s and 133.4 mPa·s
101 kPa | 729.1 mPa·s | 521.3 mPa·s | 381.4 mPa·s | 286.1 mPa·s | 217 mPa·s | 169.1 mPa·s | 133.4 mPa·s

CCCC[n+]1ccn(C)c1.O=C([O-])C(F)(F)F
101 kPa
Conditions | viscosity [mPa·s]
298.15 K | 52.9
303.15 K | 58
313.15 K | 37.83
323.15 K | 26.11

CCOC(C)OCC
101 kPa
Conditions | viscosity [mPa·s]
303.1 K | 0.404
313.1 K | 0.364

C[N+](C)(C)CCC[N+]1(C)CCCCC1.N#C[N-]C#N.N#C[N-]C#N
100 kPa
Conditions | viscosity
293.15 K | 4503 mPa·s and 4503 mPa·s
298.15 K | 2819 mPa·s
303.15 K | 1837 mPa·s and 1837 mPa·s
308.15 K | 1224 mPa·s
313.15 K | 856.1 mPa·s and 856.1 mPa·s
318.15 K | 618.5 mPa·s
323.15 K | 460.1 mPa·s and 460.1 mPa·s

ClCCCCCCCl
101 kPa
Conditions | viscosity
308.15 K | 1.616 mPa·s
313.15 K | 1.533 mPa·s and 1.534 mPa·s
318.15 K | 1.387 mPa·s

FC1CC(F)(F)C(F)(F)C1(F)F (stereo not drawn)
101 kPa
Conditions | viscosity [mPa·s]
298.15 K | 1.65
313.15 K | 1.28
323.15 K | 1.08

ClCCCCCCCl + Cc1ccccc1C
viscosity [mPa·s], [1], 101 kPa
Conditions | x1 = 0.09207 | x1 = 0.1778 | x1 = 0.2577 | x1 = 0.3658 | x1 = 0.469 | x1 = 0.5509 | x1 = 0.6697 | x1 = 0.7481 | x1 = 0.8853
308.15 K | 0.731 | 0.797 | 0.859 | 0.954 | 1.049 | 1.131 | 1.253 | 1.336 | 1.493
313.15 K | 0.689 | 0.75 | 0.809 | 0.901 | 0.994 | 1.073 | 1.191 | 1.272 | 1.419
318.15 K | 0.652 | 0.708 | 0.767 | 0.848 | 0.932 | 1.001 | 1.1 | 1.169 | 1.287

CC1(c2ccccc2)OC1C#N (stereo not drawn) + ClC(Cl)(Cl)Cl
[1], 101 kPa, x1 = 0.024
Conditions | viscosity [mPa·s]
293.15 K | 1.041
298.15 K | 0.964
303.15 K | 0.902
313.15 K | 0.8
323.15 K | 0.723

C=C(C)C(=O)OC + ClC(Cl)Cl
[1], 303.15 K, 101 kPa
Conditions | viscosity [mPa·s]
x1 = 0.0522 | 0.5364
x1 = 0.1301 | 0.5505
x1 = 0.3102 | 0.5767
x1 = 0.4132 | 0.5808
x1 = 0.5161 | 0.5747
x1 = 0.7435 | 0.5589
x1 = 0.8591 | 0.542

CCCC[n+]1ccn(C)c1.O=C([O-])C(F)(F)F + ClC(Cl)Cl
Conditions | viscosity [mPa·s]
[1], 298.15 K, 101 kPa, x2 = 0.6467 | 9.74

C=C(C)C(=O)OC + ClCCCl
[1], 303.15 K, 101 kPa
Conditions | viscosity [mPa·s]
x1 = 0.1012 | 0.6868
x1 = 0.1978 | 0.6544
x1 = 0.3975 | 0.6068
x1 = 0.4985 | 0.5867
x1 = 0.6234 | 0.5632
x1 = 0.8713 | 0.5284

CC(N)(CO)CO + O
viscosity [mPa·s], [1], 101.3 kPa
Conditions | 303.15 K | 313.15 K | 323.15 K
x1 = 0.019 | 1.127 | 0.9018 | 0.7417
x1 = 0.041 | 1.683 | 1.307 | 1.045
x1 = 0.068 | 2.681 | 1.999 | 1.567

CC(O)CNCC(C)O (stereo not drawn) + O
viscosity [mPa·s], [1]
Conditions | 293.15 K | 298.15 K | 303.15 K | 308.15 K | 313.15 K | 318.15 K | 323.15 K
101 kPa, x1 = 0.023 | – | – | – | – | – | 1.095 | –
101 kPa, x1 = 0.03 | – | – | – | 1.695 | – | – | –
101.3 kPa, x1 = 0.0071 | 1.261 | 1.097 | 0.958 | 0.834 | 0.738 | – | 0.597
101.3 kPa, x1 = 0.0148 | 1.61 | 1.37 | 1.211 | 1.046 | 0.914 | – | 0.775
101.3 kPa, x1 = 0.0329 | 2.803 | 2.363 | 2.08 | 1.803 | 1.54 | – | 1.2

CCCC[n+]1ccn(C)c1.O=C([O-])C(F)(F)F + O
Conditions | viscosity [mPa·s]
[1], 298.15 K, 101 kPa, x2 = 0.7927 | 9.03

CS(=O)(=O)[O-].C[NH+]1CCCC1=O + O
viscosity [mPa·s], [1], 100 kPa
Conditions | x1 = 0.00179 | x1 = 0.003586 | x1 = 0.005368 | x1 = 0.008047 | x1 = 0.01067 | x1 = 0.01419 | x1 = 0.02096 | x1 = 0.0263 | x1 = 0.03141
293.15 K | 1.057 | 1.106 | 1.151 | 1.222 | 1.295 | 1.396 | 1.594 | 1.754 | 1.917
298.15 K | 0.9409 | 0.9808 | 1.02 | 1.08 | 1.146 | 1.233 | 1.409 | 1.551 | 1.681
303.15 K | 0.8421 | 0.8782 | 0.9124 | 0.9664 | 1.022 | 1.099 | 1.254 | 1.374 | 1.483
308.15 K | 0.7603 | 0.7902 | 0.8191 | 0.8672 | 0.9163 | 0.9865 | 1.126 | 1.232 | 1.325

C[C@H](N)C(=O)N[C@@H](CCC(N)=O)C(=O)O + O
Conditions | viscosity [mPa·s]
[1], 298.15 K, 101 kPa, x1 = 0.0008999 | 0.919

C[n+]1ccn(CC(=O)O)c1.[Cl-] + O
[1], 298.15 K, 101 kPa
Conditions | viscosity [mPa·s]
x1 = 0.0009 | 0.911
x1 = 0.001 | 0.915
x1 = 0.002 | 0.917

[I-].[Na+] + O
[1], 310.15 K, 101 kPa
Conditions | viscosity [mPa·s]
x1 = 0.000186 | 0.7003
x1 = 0.000929 | 0.6978
x1 = 0.001834 | 0.6993
x1 = 0.002695 | 0.7053
x1 = 0.003679 | 0.7179
x1 = 0.005197 | 0.749
x1 = 0.005988 | 0.7709

[I-].[Na+] + OCCO
[1], 101 kPa, x1 = 0.2
Conditions | viscosity [mPa·s]
303 K | 47.72
313 K | 29.93
323 K | 20.08

[Sn] + [Ga]
[1], 323 K, 100 kPa
Conditions | viscosity [mPa·s]
x1 = 0.085 | 1.693
x1 = 0.164 | 2.223
x1 = 0.37 | 3.637
x1 = 0.638 | 5.381
x1 = 0.841 | 6.576

C=C(C)C(=O)OC + c1ccccc1
[1], 303.15 K, 101 kPa
Conditions | viscosity [mPa·s]
x1 = 0.1019 | 0.5507
x1 = 0.198 | 0.543
x1 = 0.4005 | 0.5273
x1 = 0.4996 | 0.522
x1 = 0.5998 | 0.519
x1 = 0.8001 | 0.5141
x1 = 0.896 | 0.5142

CCCCC/C=C\C/C=C\CCCCCCCC(=O)OCC(COC(=O)CCCCCCC/C=C\C/C=C\CCCCC)OC(=O)CCCCCCC/C=C\C/C=C\CCCCC + c1ccccc1
viscosity [mPa·s], [1], 101.3 kPa
Conditions | x1 = 0.000427 | x1 = 0.000515 | x1 = 0.000838 | x1 = 0.001044 | x1 = 0.001751 | x1 = 0.004505 | x1 = 0.007049 | x1 = 0.009645
298.15 K | 0.6136 | 0.6153 | 0.6216 | 0.6257 | 0.6401 | 0.6974 | 0.7485 | 0.8054
303.15 K | 0.5723 | 0.5739 | 0.5797 | 0.5836 | 0.597 | 0.6502 | 0.6975 | 0.7492
308.15 K | 0.535 | 0.5365 | 0.5419 | 0.5455 | 0.558 | 0.6077 | 0.6515 | 0.6986

ClCCCCCCCl + c1ccccc1
viscosity [mPa·s], [1], 101 kPa
Conditions | x1 = 0.09315 | x1 = 0.1846 | x1 = 0.2859 | x1 = 0.3958 | x1 = 0.5003 | x1 = 0.5842 | x1 = 0.6836 | x1 = 0.7842 | x1 = 0.8829
308.15 K | 0.565 | 0.613 | 0.668 | 0.733 | 0.824 | 0.92 | 1.066 | 1.217 | 1.393
313.15 K | 0.546 | 0.591 | 0.645 | 0.704 | 0.789 | 0.888 | 1.014 | 1.164 | 1.324
318.15 K | 0.505 | 0.548 | 0.594 | 0.642 | 0.72 | 0.809 | 0.929 | 1.056 | 1.197
